Several values for one entry are separate records, joined by “and”; a condition that tells them apart may be missing. Equal entries are not always repeated. Each block holds one compound with its values, some of them ahead of it.
Legend:
[1] = system: Caco-2 cells; experiment: Drug transport across human Caco-2 cells; assay type: in vitro ADME; conditions: for Efflux ratio: PEBA/PEAB; for PEAB: apical-to-basal; for PEAB / PEBA: Caco-2 monolayers, pH 7.2, 37° C.; for PEBA: basal-to-apical
[2] = Aqueous solubility; assay type: physicochemical; conditions: McIlvaine buffer pH 6.8, 2.5% DMSO, 24 h shaking
Description: Assay for Determination of Aqueous Solubility […] After 24 h of shaking, the solutions or suspensions are filtered and analyzed by LC-UV. The amount dissolved in buffer is compared to the amount dissolved in the acetonitrile/water (1/1) solution.

[3] = Metabolic stability with human liver microsomes; conditions: pooled human liver microsomes 1 mg/ml, test compound 1 μM, 37° C., NADPH
[4] = Metabolic stability with human hepatocytes; assay type: in vitro ADME; conditions: human hepatocyte suspension, 1 μM, scaled by well stirred model

CL (predicted human hepatic in vivo blood clearance) [4]: 1 mL/min/kg
SMILES: CNC(=O)N1C(=O)N(c2cccc(C(F)(F)F)c2)C2=C(C(=O)CC2)C1c1ccc(C#N)cn1 (centres unmarked) [Example 50.1]

t1/2 INVITRO [3]: >2.17 h
SMILES: C[S+]([O-])CCNC(=O)N1C(=O)N(c2cccc(C(F)(F)F)c2)C2=C(C(=O)CC2)C1c1ccc(C#N)cc1 (centres unmarked) [Example 7.6]

CL (predicted human hepatic in vivo blood clearance) [4]: 0 mL/min/kg
SMILES: CC(C)(O)CNC(=O)N1C(=O)N(c2cccc(C(F)(F)F)c2)C2=C(C(=O)CC2)[C@H]1c1ccc(C#N)cc1 [Example 41A, (R)-4-(4-Cyanophenyl)-N-(2-hydroxy-2-methylpropyl)-2,5-dioxo-1-(3-(trifluoro-methyl)phenyl)-4,5,6,7-tetrahydro-1H-cyclopenta[d]pyrimidine-3(2H)-carboxamide]

CL (predicted human hepatic in vivo blood clearance) [4]: 3 mL/min/kg
SMILES: CNC(=O)N1C(=O)N(c2cccc(C(F)(F)F)c2)C2=C(C(=O)CC2)[C@H]1c1ccc(C#N)cc1 [Example 7.1A, (R)-4-(4-Cyanophenyl)-N-methyl-2,5-dioxo-1-(3-(trifluoromethyl)phenyl)-4,5,6,7-tetrahydro-1H-cyclopenta[d]pyrimidine-3(2H)-carboxamide]

PEAB [1]: 7.74 ×10⁻⁶ cm/s | PEBA [1]: 85.5 ×10⁻⁶ cm/s | Aqueous solubility [2]: 19 µg/mL | t1/2 INVITRO [3]: >2.17 h
SMILES: CS(=O)(=O)c1cc(C#N)ccc1[C@@H]1C2=C(CCC2=O)N(c2cccc(C(F)(F)F)c2)C(=O)N1C(=O)NC1CC1 [Example 47.4]

CL (predicted human hepatic in vivo blood clearance) [4]: 0 mL/min/kg
SMILES: N#Cc1ccc([C@@H]2C3=C(CCC3=O)N(c3cccc(C(F)(F)F)c3)C(=O)N2C(=O)NCCO)cc1 [Example 7.2A, (R)-4-(4-Cyanophenyl)-N-(2-hydroxyethyl)-2,5-dioxo-1-(3-(trifluoromethyl)phenyl)-4,5,6,7-tetrahydro-1H-cyclopenta[d]pyrimidine-3(2H)-carboxamide]

CL (predicted human hepatic in vivo blood clearance) [4]: 6 mL/min/kg
SMILES: CN(C)C(=O)CN1C(=O)N(c2cccc(C(F)(F)F)c2)C2=C(C(=O)CC2)C1c1ccc(C#N)cc1 (centres unmarked) [Example 6.2]

CL (predicted human hepatic in vivo blood clearance) [4]: 4 mL/min/kg | t1/2 INVITRO [3]: >2.17 h
SMILES: N#Cc1ccc(C2C3=C(CCC3=O)N(c3cccc(C(F)(F)F)c3)C(=O)N2CC(=O)N2CCC2)cc1 (centres unmarked) [Example 6.3]

CL (predicted human hepatic in vivo blood clearance) [4]: 0 mL/min/kg | Aqueous solubility [2]: 56 µg/mL | t1/2 INVITRO [3]: >2.17 h
SMILES: N#Cc1ccc([C@@H]2C3=C(CCC3=O)N(c3cccc(C(F)(F)F)c3)C(=O)N2C(=O)N[C@H]2COC[C@@H]2O)cc1 [Example 45.5]

CL (predicted human hepatic in vivo blood clearance) [4]: 0 mL/min/kg
SMILES: CS(=O)(=O)N1C(=O)N(c2cccc(C(F)(F)F)c2)C2=C(C(=O)CC2)[C@H]1c1ccc(C#N)cc1 [Example 9A, (R)-4-(3-(Methylsulfonyl)-2,5-dioxo-1-(3-(trifluoromethyl)phenyl)-2,3,4,5,6,7-hexahydro-1H-cyclopenta[d]pyrimidin-4-yl)benzonitrile]

CL (predicted human hepatic in vivo blood clearance) [4]: 5 mL/min/kg | Aqueous solubility [2]: 67 µg/mL
SMILES: N#Cc1ccc(C2C3=C(CCC3=O)N(c3cccc(C(F)(F)F)c3)C(=O)N2C(=O)N[C@H]2COC[C@H]2O)cc1 (some centres unmarked) [Example 42.6]

Second part, the compound before the results:

SMILES: N#Cc1ccc([C@@H]2C3=C(CCC3=O)N(c3cccc(C(F)(F)F)c3)C(=O)N2C(=O)N[C@H]2CCC[C@@H]2O)cc1 [Example 45.4]
Efflux ratio [1]: 2.0 | PEAB [1]: 38.1 ×10⁻⁶ cm/s | PEBA [1]: 77.2 ×10⁻⁶ cm/s | Aqueous solubility [2]: 28 µg/mL | t1/2 INVITRO [3]: >2.17 h

SMILES: CS(=O)(=O)c1cc(C#N)ccc1C1C2=C(CCC2=O)N(c2cccc(C(F)(F)F)c2)C(=O)N1CCCO (centres unmarked) [Example 24.1]
t1/2 INVITRO [3]: 1.67 h

SMILES: CC(C)NC(=O)N1C(=O)N(c2cccc(C(F)(F)F)c2)C2=C(C(=O)CC2)[C@H]1c1ccc(C#N)cc1S(C)(=O)=O [Example 47.5]
PEAB [1]: 19.2 ×10⁻⁶ cm/s | PEBA [1]: 86.7 ×10⁻⁶ cm/s | Aqueous solubility [2]: 16 µg/mL | t1/2 INVITRO [3]: >2.17 h

SMILES: CNC(=O)N1C(=O)N(c2cccc(C(F)F)c2)C2=C(C(=O)CC2)C1c1ccc(C#N)cc1 (centres unmarked) [Example 52.1]
Efflux ratio [1]: 1.0 | PEAB [1]: 57.1 ×10⁻⁶ cm/s | PEBA [1]: 58.3 ×10⁻⁶ cm/s | Aqueous solubility [2]: 41 µg/mL | t1/2 INVITRO [3]: >2.17 h

SMILES: CS(=O)(=O)CCNC(=O)N1C(=O)N(c2cccc(C(F)(F)F)c2)C2=C(C(=O)CC2)C1c1ccc(C#N)cc1F (centres unmarked) [Example 49.3]
CL (predicted human hepatic in vivo blood clearance) [4]: 0 mL/min/kg | Aqueous solubility [2]: 32 µg/mL | t1/2 INVITRO [3]: >2.17 h

SMILES: CS(=O)(=O)c1cc(C#N)ccc1C1C2=C(CCC2=O)N(c2cccc(C(F)F)c2)C(=O)N1C(=O)NC1CC1 (centres unmarked) [Example 53.3]
Aqueous solubility [2]: 34 µg/mL

SMILES: N#Cc1ccc(C2C3=C(CCC3=O)N(c3cccc(C(F)F)c3)C(=O)N2C(=O)NCCO)cc1 (centres unmarked) [Example 52.3]
Aqueous solubility [2]: 91 µg/mL | t1/2 INVITRO [3]: >2.17 h

SMILES: N#Cc1ccc(C2C3=C(CCC3=O)N(c3cccc(C(F)(F)F)c3)C(=O)N2C(=O)NC2(CO)CC2)cc1 (centres unmarked) [Example 41.5]
Efflux ratio [1]: 8.7 | PEBA [1]: 77 ×10⁻⁶ cm/s

SMILES: CCNC(=O)N1C(=O)N(c2ccnc(C(F)(F)F)c2)C2=C(C(=O)CC2)C1c1ccc(C#N)cc1 (racemic) [Example 54.2]
t1/2 INVITRO [3]: >2.17 h

SMILES: CCS(=O)(=O)c1cc(C#N)ccc1C1NC(=O)N(c2cccc(C(F)(F)F)c2)C2=C1C(=O)CC2 (centres unmarked) [Example 14, 4-(2,5-Dioxo-1-(3-(trifluoromethyl)phenyl)-2,3,4,5,6,7-hexahydro-1H-cyclopenta[d]pyrimidin-4-yl)-3-(ethylsulfonyl)benzonitrile]
CL (predicted human hepatic in vivo blood clearance) [4]: 4 mL/min/kg

SMILES: CS(=O)(=O)c1cc(C#N)ccc1C1C2=C(CCC2=O)N(c2cccc(C(F)(F)F)c2)C(=O)N1CC(=O)N1CC2CC2C1 (centres unmarked) [Example 22.4]
t1/2 INVITRO [3]: >2.17 h

SMILES: CN1C(=O)N(c2cccc(C(F)(F)F)c2)C2=C(C(=O)CC2)[C@H]1c1ccc(C#N)cc1S(C)(=O)=O [Example 25, (S)-4-(3-Methyl-2,5-dioxo-1-(3-(trifluoromethyl)phenyl)-2,3,4,5,6,7-hexahydro-1H-cyclopenta[d]pyrimidin-4-yl)-3-(methylsulfonyl)benzonitrile]
CL (predicted human hepatic in vivo blood clearance) [4]: 2 mL/min/kg

SMILES: N#Cc1ccc(C2C3=C(CCC3=O)N(c3cccc(C(F)(F)F)c3)C(=O)N2C(=O)N[C@@H]2CCC[C@H]2O)cc1 (some centres unmarked) [Example 42.3]
Efflux ratio [1]: 2.4 | PEAB [1]: 36.2 ×10⁻⁶ cm/s | PEBA [1]: 86 ×10⁻⁶ cm/s | Aqueous solubility [2]: 20 µg/mL | t1/2 INVITRO [3]: >2.17 h

SMILES: C[C@H](CO)NC(=O)N1C(=O)N(c2cccc(C(F)(F)F)c2)C2=C(C(=O)CC2)C1c1ccc(C#N)cc1 (some centres unmarked) [Example 41.4]
CL (predicted human hepatic in vivo blood clearance) [4]: 5 mL/min/kg | Efflux ratio [1]: 8.7 | t1/2 INVITRO [3]: >2.17 h

SMILES: N#Cc1ccc(C2C3=C(CCC3=O)N(c3cccc(C(F)(F)F)c3)C(=O)N2C(=O)NCCCO)cc1 (centres unmarked) [Example 7.3]
CL (predicted human hepatic in vivo blood clearance) [4]: 7 mL/min/kg | Efflux ratio [1]: 7.1 | t1/2 INVITRO [3]: >2.17 h

SMILES: CC(C)(O)CNC(=O)N1C(=O)N(c2cccc(C(F)F)c2)C2=C(C(=O)CC2)C1c1ccc(C#N)cc1 (centres unmarked) [Example 52.5]
Efflux ratio [1]: 14.1 | PEAB [1]: 4.45 ×10⁻⁶ cm/s | PEBA [1]: 62.7 ×10⁻⁶ cm/s | Aqueous solubility [2]: 70 µg/mL | t1/2 INVITRO [3]: >2.17 h

SMILES: CS(=O)(=O)c1cc(C#N)ccc1C1NC(=O)N(c2cccc(C(F)F)c2)C2=C1C(=O)CC2 (centres unmarked) [Example 15.4, 4-(1-(3-(difluoromethyl)phenyl)-2,5-dioxo-2,3,4,5,6,7-hexahydro-1H-cyclopenta[d]pyrimidin-4-yl)-3-(methylsulfonyl)benzonitrile]
CL (predicted human hepatic in vivo blood clearance) [4]: 0 mL/min/kg

SMILES: CS(=O)(=O)c1cc(C#N)ccc1[C@H]1NC(=O)N(c2cccc(C(F)(F)F)c2)C2=C1C(=O)CC2 [example 10A, (S)-4-(2,5-Dioxo-1-(3-(trifluoromethyl)phenyl)-2,3,4,5,6,7-hexahydro-1H-cyclopenta[d]pyrimidin-4-yl)-3-(methylsulfonyl)benzonitrile]
CL (predicted human hepatic in vivo blood clearance) [4]: 0 mL/min/kg | AB permeability (comparison in words) ([1]; Caco-2, compared to example 44 disclosed in US 2011/0034433): improved AB permeability

SMILES: N#Cc1ccc(C2C3=C(CCC3=O)N(c3cccc(C(F)(F)F)c3)C(=O)N2C(=O)NC2CCOCC2)cc1 (centres unmarked) [Example 41.16]
Efflux ratio [1]: 1.0 | t1/2 INVITRO [3]: >2.17 h

SMILES: CS(=O)(=O)c1cc(C#N)ccc1[C@@H]1C2=C(CCC2=O)N(c2cccc(C(F)(F)F)c2)C(=O)N1CC#N [Example 23, (S)-4-(3-(Cyanomethyl)-2,5-dioxo-1-(3-(trifluoromethyl)phenyl)-2,3,4,5,6,7-hexahydro-1H-cyclopenta[d]pyrimidin-4-yl)-3-(methylsulfonyl)benzonitrile]
CL (predicted human hepatic in vivo blood clearance) [4]: 0 mL/min/kg

SMILES: N#Cc1ccc([C@@H]2C3=C(CCC3=O)N(c3cccc(C(F)F)c3)C(=O)N2C(=O)NCCCO)cc1 [Example 52A, (R)-4-(4-Cyanophenyl)-1-(3-(difluoromethyl)phenyl)-N-(3-hydroxypropyl)-2,5-dioxo-4,5,6,7-tetrahydro-1H-cyclopenta[d]pyrimidine-3(2H)-carboxamide]
CL (predicted human hepatic in vivo blood clearance) [4]: 8 mL/min/kg

SMILES: CC(C)(O)CCNC(=O)N1C(=O)N(c2cccc(C(F)(F)F)c2)C2=C(C(=O)CC2)C1c1ccc(C#N)cc1 (centres unmarked) [Example 41.17]
CL (predicted human hepatic in vivo blood clearance) [4]: 3 mL/min/kg | Efflux ratio [1]: 3.5 | t1/2 INVITRO [3]: >2.17 h

SMILES: C[C@H](O)CNC(=O)N1C(=O)N(c2cccc(C(F)(F)F)c2)C2=C(C(=O)CC2)C1c1ccc(C#N)cc1 (some centres unmarked) [Example 41.1]
CL (predicted human hepatic in vivo blood clearance) [4]: 2 mL/min/kg | Efflux ratio [1]: 8.9 and 4.8 | t1/2 INVITRO [3]: >2.17 h

Source: patent publication US9670166B2, “Substituted bicyclic dihydropyrimidinones and their use as inhibitors of neutrophil elastase activity” (Boehringer Ingelheim International GmbH, priority 2013, dated 2017)
